Data taken from US20030162759A1, “Aldosterone blocker therapy to prevent or treat inflammation-related disorders” (priority 2000, published 2003).
Where “and” joins values, the source holds several entries; their conditions need not be identical. Identical values can stand only once. Entries after “also recorded” stand apart in the source; their conditions may differ.

What was measured:
Type in all cases: in vivo, rat
cyclooxygenase-2 (COX-2) = test: Assay A angiotensin II infusion model: cyclooxygenase-2 immunostaining of hearts; conditions: angiotensin II infused rats; eplerenone 100 mpk
Experimental: Male Wistar rats (n—50, 10/group; BW=200 g)
2. Angiotensin 11 (25 ng/min, sc via aizet minipump)

[1] = tested on: aldosterone + salt treated rats; test: Assay C further aldosterone infusion study: radiotelemetrized systolic blood pressure
Excerpt: Assay C: Further in vivo Aldosterone Infusion Study The procedure of Assay B was expanded upon in a further study. […] Myocardial tissue from animals in each treatment group was examined after 7, 14, or 30 days of treatment. […] Lesions were preceded by the expression and progressive upregulation of proinflammatory molecules. […] Male Sprague-Dawley rats, weighing 230 to 250 g, (Harlan Sprague-Dawley Industries, Indianapolis, Ind.) were housed in a room 12-hours light/12-hours dark daily cycle at an ambient temperature of 22±1° C. (n=96). Animals were allowed one week to adjust after arrival and had free access to TEKLAD 22/5 rodent diet (Harlan TEKLAD, Madison, Wis.) and tap water until the initiation of the experiment. Prior to surgery the animals were individually weighed and placed in one of the following groups: […] Potassium chloride supplementation was added to the saline solution in order to prevent the potential hypokalemia associated with aldosterone excess. […] Louis, Mo.) was inserted subcutaneously at the nape of the neck. Aldosterone was administered at a dose of […]. […] Animals were sacrificed from each group (n=8-13) after 7, 14, or 30 days of treatment. Animals to be sacrificed after 7 or 14 days of treatment were uninephrectomized and implanted with an Alzet minipump. Animals treated for 30 days were uninephrectomized, fitted for Alzet minipumps, and implanted with radio telemetry units (model#TA11PA-C40, Data Sciences Inc., St. Paul, Minn.) according to the following procedure. […] The surgery site was clipped, scrubbed with nolvasan, and sprayed with betadine. A rostral-caudal incision was made through the skin from the base of the rib cage to the pubic region using a #11 scalpel blade. A second incision was made through the muscles of the abdominal wall to expose the peritoneal cavity. […] Organs were carefully displaced with tissue retractors in order to expose the abdominal aorta. A 1.5 cm segment just rostral to the bifurcation of the abdominal aorta into the iliac arteries was cleared of excessive connective tissue and 4-0 silk was used to make an anchor adjacent to the aorta. A microvascular clip was then placed at both ends of the cleaned region to stop excessive blood flow. Using a bent, 21 gauge needle, the abdominal aorta was penetrated. The cannula of the radio telemetry unit was inserted and stabilized in the aorta using the 4-0 silk anchor. Organs were repositioned and the telemetry unit was placed over the organs. Using a non-interrupted suture pattern with 4-0 silk, the abdominal wall was closed, and the skin was subsequently closed using a 4-0 silk in an interrupted suture pattern. […] Post-operative care included monitoring the animals on a heating pad during recovery from anesthesia until sternal recumbency was reestablished. Radiotelemetrized arterial blood pressure was calculated with the […] Version 1.1-Gold software (Data Sciences International, St. Paul, Minn.). Data points were collected over a 24 hour period with the collection rate set for a 10 second reading every 5 min for each animal. The 24 hour period used was from 6:00 a.m. to 6:00 a.m.

interstitial collagen = test: Assay C: interstitial collagen volume fraction (Picrosirius Red image analysis); conditions: for Interstitial Collagen Volume Fraction: Table 9.14, 7-day protocol; for Collagen Volume Fraction (%), Mean: group mean; for ICVF (interstitial collagen volume fraction): eplerenone 100 mg/kg/day
Experimental: The procedure of Assay B was expanded upon in a further study. […] Myocardial tissue from animals in each treatment group was examined after 7, 14, or 30 days of treatment. […] Lesions were preceded by the expression and progressive upregulation of proinflammatory molecules. […] Prior to surgery the animals were individually weighed and placed in one of the following groups: […] Potassium chloride supplementation was added to the saline solution in order to prevent the potential hypokalemia associated with aldosterone excess. […] Louis, Mo.) was inserted subcutaneously at the nape of the neck. Aldosterone was administered at a dose of […]. […] Animals were sacrificed from each group (n=8-13) after 7, 14, or 30 days of treatment. The equatorial regions of the heart were routinely processed into paraffin with an automated tissue processor (Hypercenter XP, Shandon/Lipshaw Inc., Pittsburgh, Pa.) and embedded into fresh paraffin apical side down (Shandon Embedding Center, Shandon/Lipshaw Inc.). […] Ten m sections were stained with the collagen specific stain, Picrosirius Red F3BA (Saturated Picric Acid (Sigma Chemical, St. […] Waterbury, Conn.) (6). Mounted tissues were hydrated with water. […] Slides were coverslipped with #1 cover glass using Permount Histological Mounting Media (Fisher Scientific). Two slides mounted with 5 m sections were cut for each animal. One slide was processed for H&E staining and one for Periodic Acid Schiff (PAS) staining. The H&E and PAS were used for pathological scoring of the hearts. Picrosirius Red F3BA stained slides were used to quantify interstitial collagen with a Videometric 150 Image Analysis System (Oncor Inc., Gaitherburg, Md.). […] Garden City, N.Y.) attached to a Nikon Optiphot microscope (Nikon Inc.). A Toshiba 3 CCD Color Video Camera (Model#[…] Corp. Japan) relayed the images in RGB format from the microscope to a 386 computer with a […] video board. The […] video board/[…] software application (Oncor Inc.) converted RGB images to HIS (Hue, Intensity, Saturation) format for display and analysis on a Sony Trinitron Color Video Monitor (Model#PVM-1342Q, Sony Corp, Tokyo, Japan) at a magnification of 305×. […] The […] application then measured only pixels which fell into thresholding limits. The system was calibrated with a micrometer scale (EM Sciences, FT. Washington, Pa. 19034), which allowed data to be expressed in mm^2 or m^2.

## C[C@]12CCC(=O)C=C1CC[C@@H]1[C@@H]2[C@@H](O)C[C@]2(C=O)[C@@H](C(=O)CO)CC[C@@H]12 [aldosterone]
cyclooxygenase-2 (COX-2)
  Cyclooxygenase-2 expression in the heart (immunostaining): restored the presence of cycloxygenase-2 in coronary arteries
[1]; Day 3, mean ± SEM of values every 5 min over 24-hour period
  Systolic Blood Pressure: 132 ± 6 mmHg
[1]; Day 5, mean ± SEM of values every 5 min over 24-hour period
  Systolic Blood Pressure: 137 ± 4 mmHg
[1]; Day 6, mean ± SEM of values every 5 min over 24-hour period
  Systolic Blood Pressure: 148 ± 5 mmHg
[1]; Day 7, mean ± SEM of values every 5 min over 24-hour period
  Systolic Blood Pressure: 155 ± 5 mmHg
[1]; Day 8, mean ± SEM of values every 5 min over 24-hour period
  Systolic Blood Pressure: 156 ± 4 mmHg
[1]; Day 9, mean ± SEM of values every 5 min over 24-hour period
  Systolic Blood Pressure: 164 ± 5 mmHg
[1]; Day 11, mean ± SEM of values every 5 min over 24-hour period
  Systolic Blood Pressure: 171 ± 6 mmHg
[1]; Day 12, mean ± SEM of values every 5 min over 24-hour period
  Systolic Blood Pressure: 178 ± 6 mmHg
[1]; Day 13, mean ± SEM of values every 5 min over 24-hour period
  Systolic Blood Pressure: 182 ± 6 mmHg
[1]; Day 15, mean ± SEM of values every 5 min over 24-hour period
  Systolic Blood Pressure: 181 ± 5 mmHg
[1]; Day 16, mean ± SEM of values every 5 min over 24-hour period
  Systolic Blood Pressure: 187 ± 6 mmHg
[1]; Day 17, mean ± SEM of values every 5 min over 24-hour period
  Systolic Blood Pressure: 195 ± 7 mmHg
[1]; Day 18, mean ± SEM of values every 5 min over 24-hour period
  Systolic Blood Pressure: 196 ± 6 mmHg
[1]; Day 19, mean ± SEM of values every 5 min over 24-hour period
  Systolic Blood Pressure: 200 ± 6 mmHg
[1]; Day 20, mean ± SEM of values every 5 min over 24-hour period
  Systolic Blood Pressure: 203 ± 5 mmHg
[1]; Day 21, mean ± SEM of values every 5 min over 24-hour period
  Systolic Blood Pressure: 208 ± 4 mmHg
[1]; Day 22, mean ± SEM of values every 5 min over 24-hour period
  Systolic Blood Pressure: 209 ± 4 mmHg
[1]; Day 23, mean ± SEM of values every 5 min over 24-hour period
  Systolic Blood Pressure: 208 ± 4 mmHg
[1]; Day 24, mean ± SEM of values every 5 min over 24-hour period
  Systolic Blood Pressure: 210 ± 3 mmHg
[1]; Day 25, mean ± SEM of values every 5 min over 24-hour period
  Systolic Blood Pressure: 210 ± 4 mmHg
[1]; Day 26, mean ± SEM of values every 5 min over 24-hour period
  Systolic Blood Pressure: 210 ± 3 mmHg
[1]; uninephrectomized Sprague-Dawley rats, 1% NaCl-0.3% KCl, aldosterone infusion, eplerenone 100 mg/kg/day, up to 30 days, listed as Aldosterone+salt
  Systolic Blood Pressure: progressive increase in blood pressure with time
[1]; uninephrectomized Sprague-Dawley rats, 1% NaCl-0.3% KCl, aldosterone infusion, eplerenone 100 mg/kg/day, up to 30 days, listed as Aldosterone/salt
  Systolic Blood Pressure: induced severe hypertension
Interstitial collagen; group Mean
  Interstitial Collagen Volume Fraction: 5.6%
Interstitial collagen; individual rats, listed as Aldosterone + salt
  Interstitial Collagen Volume Fraction: 3.2% and 6.5% (2×) and 6.1% and 6.9% and 4.4% and 3.1%
Interstitial collagen; 14 days of treatment
  Collagen Volume Fraction (%), Mean: 5.1%
Interstitial collagen; 30 days of treatment
  Collagen Volume Fraction (%), Mean: 7.9%
Interstitial collagen; mean ± SEM after 7 days of treatment
  ICVF (interstitial collagen volume fraction): 5.6 ± 0.6%
Interstitial collagen; mean ± SEM after 14 days of treatment
  ICVF (interstitial collagen volume fraction): 5.1 ± 0.5%
Interstitial collagen; mean ± SEM after 30 days of treatment
  ICVF (interstitial collagen volume fraction): 7.9 ± 1.0%

## COC(=O)[C@@H]1CC2=CC(=O)CC[C@]2(C)[C@@]23O[C@@H]2C[C@@]2(C)[C@@H](CC[C@@]24CCC(=O)O4)[C@H]13 [eplerenone, Pregn-4-ene-7,21-dicarboxylic acid, 9,11-epoxy-17-hydroxy-3-oxo-, γ-lactone, methyl ester, (7α, 11α, 17β) -]
cyclooxygenase-2 (COX-2)
  Cyclooxygenase-2 expression in the heart (immunostaining): prevention by eplerenone of induction of COX-2 expression; also recorded: markedly reduced and in most cases completely prevented the expression of cycloxygenase-2
[1]; uninephrectomized Sprague-Dawley rats, 1% NaCl-0.3% KCl, aldosterone infusion, eplerenone 100 mg/kg/day, up to 30 days
  Systolic Blood Pressure: significantly reduced
[1]; uninephrectomized Sprague-Dawley rats, 1% NaCl-0.3% KCl, aldosterone infusion, eplerenone 100 mg/kg/day, up to 30 days, listed as eplerenone+aldosterone+salt
  Systolic Blood Pressure: significantly reduced at days 8-30
Interstitial collagen; 14 days of treatment
  Collagen Volume Fraction (%), Mean: 4.5%
Interstitial collagen; 30 days of treatment
  Collagen Volume Fraction (%), Mean: 6.2%
